The values that follow are results of earlier work, collected in patent publication US20150050333A1, “PHARMACEUTICAL COMPOSITION COMPRISING OLMESARTAN MEDOXOMIL AND ROSUVASTATIN OR ITS SALT” (priority 2012, published 2015).

The subject of this series is CYP450.

As for `CC(C)c1nc(N(C)S(C)(=O)=O)nc(-c2ccc(F)cc2)c1/C=C/[C@@H](O)C[C@@H](O)CC(=O)O` [rosuvastatin], the “Portion of rosuvastatin that is metabolized” value (metabolized mainly by CYP 2C9 and CYP 2C19) is 10%. In the case of `CCCc1nc(C(C)(C)O)c(C(=O)OCc2oc(=O)oc2C)n1Cc1ccc(-c2ccccc2-c2nnn[nH]2)cc1` [Olmesartan medoxomil], the “Metabolism of olmesartan medoxomil by CYP450” value (after in vivo absorption) is listed as “not metabolized by CYP450”.
